Results on 80 compounds are retold here after PubChem BioAssay AID2202555 (NIEHS Division of Translational Toxicology (DTT)).

Inconclusive results are not listed. Activity calls are given as the source filed them. The rule behind the calls is not given here.

One data set deals with rat and mouse 2-year carcinogenicity bioassay, tumor evidence. The data set can be described thus: Consolidated carcinogenicity assay summary data. The following applies: Route (rodents): Dosed feed. The source says: Cancer Evaluation Criteria
The National Toxicology Program describes the results of individual experiments on a chemical agent and notes the strength of the evidence for conclusions regarding each study. […] Other organizations, such as the International Agency for Research on Cancer, assign a strength of evidence for conclusions based on an examination of all available evidence, including animal studies such as those conducted by the NTP, epidemiologic studies, and estimates of exposure. Thus, the actual determination of risk to humans from chemicals found to be carcinogenic in laboratory animals requires a wider analysis that extends beyond the purview of these studies.
Five categories of evidence of carcinogenic activity are used in the Technical Report series to summarize the strength of evidence observed in each experiment: two categories for positive results (clear evidence and some evidence); one category for uncertain findings (equivocal evidence); one category for no observable effects (no evidence); and one category for experiments that cannot be evaluated because of major flaws (inadequate study). These categories of interpretative conclusions were first adopted in June 1983 and then revised on March 1986 for use in the Technical Report series to incorporate more specifically the concept of actual weight of evidence of carcinogenic activity. For each separate experiment (male rats, female rats, male mice, female mice), one of the following five categories is selected to describe the findings. These categories refer to the strength of the experimental evidence and not to potency or mechanism.
For studies showing multiple chemical-related neoplastic effects that if considered individually would be assigned to different levels of evidence categories, the following convention has been adopted to convey completely the study results. In a study with clear evidence of carcinogenic activity at some tissue sites, other responses that alone might be deemed some evidence are indicated as "were also related" to chemical exposure. In studies with clear or some evidence of carcinogenic activity, other responses that alone might be termed equivocal evidence are indicated as "may have been" related to chemical exposure.
When a conclusion statement for a particular experiment is selected, consideration must be given to key factors that would extend the actual boundary of an individual category of evidence. Such consideration should allow for incorporation of scientific experience and current understanding of long-term carcinogenesis studies in laboratory animals, especially for those evaluations that may be on the borderline between two adjacent levels. These considerations should include:
- adequacy of the experimental design and conduct;
- occurrence of common versus uncommon neoplasia;
- progression (or lack thereof) from benign to malignant neoplasia as well as from preneoplastic to neoplastic lesions;
- some benign neoplasms have the capacity to regress but others (of the same morphologic type) progress. At present, it is impossible to identify the difference. Therefore, where progression is known to be a possibility, the most prudent course is to assume that benign neoplasms of those types have the potential to become malignant;
- combining benign and malignant tumor incidences known or thought to represent stages of progression in the same organ or tissue;
- latency in tumor induction;
- multiplicity in site -specific neoplasia;
- supporting information from proliferative lesions (hyperplasia) in the same site of neoplasia or in other experiments (same lesion in another sex or species);
- presence or absence of dose relationships;
- statistical significance of the observed tumor increase;
- concurrent control tumor incidence as well as the historical control rate and variability for a specific neoplasm;
- survival-adjusted analyses and false positive or false negative concerns;
- structure-activity correlations; and
[…]
As to `CCCCOC(=O)c1ccccc1C(=O)OCc1ccccc1`, the carcinogen call was “active; some evidence”. Still for that read-out and setting: then `Nc1ccc(S(=O)(=O)c2ccc(N)cc2)cc1`, with “active; clear evidence”; and `Cc1cc(Cl)ccc1N`, with “active; no evidence”. On the same count and under the same terms, then `Cc1cnc[nH]1`, with “active; no evidence”; and `Nc1ccc(Oc2ccc(N)cc2)cc1`, with “active; clear evidence”. Same read-out and setting: then `C/C=C(/C)C(=O)O[C@H]1CCN2CC=C(COC(=O)[C@@](O)([C@@H](C)OC)C(C)(C)O)[C@H]12`, with “active; clear evidence”; and `c1ccc(N=Nc2ccccc2)cc1`, with “active; clear evidence”. Turning to `Nc1cc(S(=O)(=O)O)cc2cc(S(=O)(=O)O)c(N=Nc3ccc(-c4ccc(N=Nc5c(S(=O)(=O)O)cc6cc(S(=O)(=O)O)cc(N)c6c5O)cc4)cc3)c(O)c12`, the carcinogen call is “active; clear evidence”.

In the case of `COc1ccc(C)cc1N`, the carcinogen call is “active; clear evidence”. In the case of `O=C(c1ccccc1)c1ccccc1`, the carcinogen call is “active; some evidence”.

Turning to `COc1ccccc1N`, the carcinogen call was “active; clear evidence”. On the same count and under the same terms, for `Oc1c(Cl)c(Cl)c(Cl)c(Cl)c1Cl` the value was “active; some evidence”; for `Cc1ccccc1[N+](=O)[O-]`, “active; clear evidence”; for `Nc1ccc(O)c([N+](=O)[O-])c1`, “active; clear evidence”.

As to `[O-]/[N+](=N\O)c1ccccc1`, the carcinogen call was “active; clear evidence”. For the compound `Cc1ccc(N)cc1N`, the carcinogen call is “active; clear evidence”. Same read-out and setting: then `CN(C)c1ccc(C(c2ccccc2)c2ccc(N(C)C)cc2)cc1`, with “active; equivocal evidence”; and `CCn1cc(C(=O)O)c(=O)c2ccc(C)nc21`, with “active; clear evidence”. On to `Cc1ccc(Cl)cc1N`, for which the carcinogen call is “active; no evidence”. Turning to `Brc1c(Br)c(Br)c(Oc2c(Br)c(Br)c(Br)c(Br)c2Br)c(Br)c1Br`, the carcinogen call was “active; some evidence”.

`O=C1C2CC=CCC2C(=O)N1SC(Cl)(Cl)Cl` (stereo not given): the carcinogen call was “active; no evidence”.

As for `OC(c1ccc(Cl)cc1)(c1ccc(Cl)cc1)C(Cl)(Cl)Cl`, the carcinogen call was “active; no evidence”. As for `COP(=O)(OC)O/C(=C\Cl)c1cc(Cl)c(Cl)cc1Cl`, the carcinogen call was “active; no evidence”. Take `COc1ccc([N+](=O)[O-])cc1N`: the carcinogen call is “active; clear evidence”.

Turning to `CNC(=S)N(C)C`, the carcinogen call is “active; no evidence”. On the same count and under the same terms, for `O=c1c(-c2ccc(O)cc2)coc2cc(O)cc(O)c12` the value was “active; no evidence”; for `CN(C)C(=O)Nc1ccc(Cl)cc1`, “active; clear evidence”; for `O=[N+]([O-])c1ccc(Oc2ccc(Cl)cc2Cl)cc1`, “active; no evidence”. As to `O=C1CN(N=Cc2ccc([N+](=O)[O-])o2)C(=O)N1`, the carcinogen call is “active; some evidence”.

Take `Nc1ccc(N=Nc2ccc(-c3ccc(N=Nc4c(S(=O)(=O)O)cc5cc(S(=O)(=O)O)c(N=Nc6ccccc6)c(O)c5c4N)cc3)cc2)c(N)c1`: the carcinogen call is “active; clear evidence”. On to `O=C1NC(=O)C(c2ccccc2)(c2ccccc2)N1`, for which the carcinogen call is “active; equivocal evidence”. Same read-out and setting: for `Cc1ccc([N+](=O)[O-])cc1N` the value was “active; no evidence”. As to `Nc1ccc(Sc2ccc(N)cc2)cc1`, the carcinogen call is “active; clear evidence”. Turning to `CNc1ccc(N(CCO)CCO)cc1[N+](=O)[O-]`, the carcinogen call is “active; equivocal evidence”.

Still in this data set, the particulars now being: Route (rodents): Dosed water.
`C1COCCO1`: the carcinogen call is “active; clear evidence”. On the same count and under the same terms, for `C=CC(N)=O` the value was “active; clear evidence”.

Take `COc1cc(-c2ccc(N=Nc3c(S(=O)(=O)O)cc4cc(S(=O)(=O)O)cc(N)c4c3O)c(OC)c2)ccc1N=Nc1c(S(=O)(=O)O)cc2cc(S(=O)(=O)O)cc(N)c2c1O`: the carcinogen call was “active; clear evidence”. On the same count and under the same terms, for `CC(C)(C)O` the value was “active; some evidence”. As for `c1ccncc1`, the carcinogen call was “active; some evidence”.

The same data set, now with this note: Route (rodents): Gavage.
In the case of `CC1(C)COC1=O`, the carcinogen call is “active; clear evidence”.

For `CC(C)(c1cc(Br)c(O)c(Br)c1)c1cc(Br)c(O)c(Br)c1`, the carcinogen call is “active; equivocal evidence”. Consider `CC(C)=CCl`, for which the carcinogen call is “active; clear evidence”. As to `COc1c2occc2cc2ccc(=O)oc12`, the carcinogen call was “active; clear evidence”. As to `CCCN(CCC)S(=O)(=O)c1ccc(C(=O)O)cc1`, the carcinogen call was “active; no evidence”. `OCC1CO1` (stereo not given): the carcinogen call is “active; clear evidence”. Take `Clc1ccc(-c2cc(Cl)c(Cl)c(Cl)c2)cc1Cl`: the carcinogen call was “active”. Same read-out and setting: for `BrC(Br)Br` the value was “active; some evidence”; for `Nc1ccc([N+](=O)[O-])cc1O`, “active; some evidence”; for `CC1C(=O)C[C@]2(C(C)C)C[C@H]12` (stereo not given in full), “active; some evidence”. Turning to `ClCC(Cl)(Cl)Cl`, the carcinogen call was “active; equivocal evidence”. In the case of `Nc1ccc(Cl)cc1`, the carcinogen call is “active; clear evidence”.

Turning to `[Cl-].[Cl-].[Hg+2]`, the carcinogen call was “active; some evidence”. The same measure, in the same setting: then `O=[N+]([O-])c1ccc(Nc2ccc(Nc3ccccc3)c(S(=O)(=O)O)c2)c([N+](=O)[O-])c1`, with “active; no evidence”; and `COC(N)=O`, with “active; clear evidence”; and `O=Cc1ccco1`, with “active; some evidence”. For the compound `CC(C)CCC[C@@H](C)[C@H]1CC[C@H]2[C@@H]3CC=C4C[C@@H](OC(=O)Cc5ccc(N(CCCl)CCCl)cc5)CC[C@]4(C)[C@H]3CC[C@]12C`, the carcinogen call was “active; no evidence”. `C=CC(=O)OCC`: the carcinogen call is “active; clear evidence”. Regarding `C[C@]12C/C(=C/O)C(=O)C[C@@H]1CC[C@@H]1[C@@H]2CC[C@@]2(C)[C@H]1CC[C@]2(C)O`, the carcinogen call was “active; equivocal evidence”.

Regarding `c1ccoc1`, the carcinogen call was “active; clear evidence”.

The data set is the same for the next values; noted with them: Route (rodents): Gavage; Second Route: Administration in utero.
For the compound `Cc1cn([C@H]2C[C@H](N=[N+]=[N-])[C@@H](CO)O2)c(=O)[nH]c1=O`, the carcinogen call is “active”.

The same data set, now with this note: Route (rodents): Gavage; Second Route: Dosed Feed.
In the case of `CC(=O)OCc1ccccc1`, the carcinogen call was “active; equivocal evidence”.

Staying with this data set, now noted: Route (rodents): Gavage; Second Route: Topical.
As to `S=[Se]`, the carcinogen call was “active; clear evidence”. As to `Clc1cc2c(c(Cl)c1Cl)Oc1cc(Cl)c(Cl)c(Cl)c1O2`, the carcinogen call is “active; equivocal evidence”.

Staying with this data set, now noted: Route (rodents): Inhalation.
As to `CC(C)c1ccccc1`, the carcinogen call is “active; clear evidence”. Consider `C=CC=C`, for which the carcinogen call was “active”. Turning to `FC(F)(F)c1ccc(Cl)cc1`, the carcinogen call was “active; some evidence”. The same measure, in the same setting: then `CC(=O)CC(C)C`, with “active; some evidence”; and `CCCCOCCO`, with “active; no evidence”. The same measure, in the same setting: then `C=C(C)c1ccccc1`, with “active; some evidence”.

Turning to `C#CCO`, the carcinogen call was “active; some evidence”.

Regarding `C1CCC2CCCCC2C1` (stereo not given), the carcinogen call was “active; clear evidence”. With `c1ccc2c(c1)CCCC2`, the carcinogen call is “active; some evidence”. Consider `C=C(C)C`, for which the carcinogen call is “active; some evidence”. The same measure, in the same setting: for `C1CO1` the value was “active”; for `C[N+](=O)[O-]`, “active; no evidence”; for `CC1CO1` (stereo not given), “active; some evidence”. Consider `OCc1ccco1`, for which the carcinogen call was “active; some evidence”.

Still in this data set, the particulars now being: Route (rodents): Interperitoneal.
`COc1ccc(C(=O)/C(Br)=C\C(=O)O)cc1`: the carcinogen call is “active; clear evidence”.

Turning to `S=P(N1CC1)(N1CC1)N1CC1`, the carcinogen call is “active; clear evidence”.

Staying with this data set, now noted: Route (rodents): Topical.
`C=CC(=O)OCC(CC)(COC(=O)C=C)COC(=O)C=C`: the carcinogen call is “active; equivocal evidence”.
